Values of other authors, collected in patent US20140079751A1, “METHOD OF USING COMPOSITE OF SILVER NANOPARTICLES AND NANOSILICATE PLATELETS TO INHIBIT GROWTH OF SILVER-RESISTANT BACTERIA” (priority 2010, published 2014).

Tested on: silver-resistant Escherichia coli (J53pMG101)
Settings: background statement, Escherichia coli strain J53 pMG101

silver ions
silver ion concentration the strain can survive: more than 1 mM
